Results from patent publication US11419902B2, “Compositions comprising bacterial strains” (4D Pharma Research Limited, priority 2018, dated 2022).

Columns and labels:
[1] = tested on: Occludin, Villin, TJP1 and TJP2; experiment: Tight junction protein gene expression in HT29-mtx cells (qRT-PCR); assay type: cell-based; conditions: 2 h incubation
Description: The ability of MRx0029 to cause any intestinal barrier dysfunction was investigated. HT29-mtx epithelial, mucin-producing cell monolayers were used as an in vitro model to evaluate gut barrier disruption and immune stimulation following treatment with MRx0029.
Total RNA was extracted using the RNeasy mini kit (Qiagen, Manchester, JUK) according to the manufacturer's instructions, and the RNA concentration determined by absorbance at 260/280 nm using a spectrophotometer (nano-Drop ND-1000; Thermo Scientific, Wilmington, Del.). For mRNA expression analysis, cDNA was prepared from total RNA using the High-Capacity cDNA reverse transcription kit (Applied Biosystems, UK) according to the manufacturer's instructions. The reverse transcription reactions were performed in a Thermo cycler (Biometra, Germany) at 25° C. for 10 min, 37° C. for 120 min, and 85° C. for 5 min, hold on at 4° C. Resulting cDNA was amplified in duplicates by the SYBR-Green PCR assay, and products were detected on QuantStudio 6 flex real-time PCR machine (Applied Biosystems, UK) using a standardised profile (initial denaturation of 95° C. for 10 minutes, followed by 40 cycles of 15 seconds of denaturation at 95° C. and 60 seconds of annealing/extension at 60/65° C., depending on the primers. A dissociation stage was added after the 40 cycles to generate a melting curve. Analysis was performed using the Applied Biosystems QuantStudio Real-Time PCR Software v1.2.
RNA was isolated and Quantitative RT-PCR (qRT-PCR) analysis was performed to characterize the changes in gene expression of tight junction proteins during incubation with MRx0029. The administration of MRx0029 enhanced Occludin, Villin, Tight Junction Protein 1 and 2 (respectively TJP1 and TJP2) mRNA expression after 2 h incubation (FIG. 14B).

Caspase 3 (Casp3) = experiment: Caspase 3 expression in SH-SY5Y cells; assay type: cell-based; conditions: undifferentiated SH-SY5Y cells, vs control
Description: The inventors measured the change in Casp3 expression in neuroblastoma cells.

Megasphaera massiliensis MRx0029
Occludin mRNA expression [1]: enhanced
TJP1 mRNA expression [1]: enhanced
TJP2 mRNA expression [1]: enhanced
Villin mRNA expression [1]: enhanced
expression of Casp3 (Caspase 3 (Casp3)): increased the expression of Casp3 threefold
